# Data reported in US8163906B2, “Dihydroquinone and dihydronaphthridine inhibitors of JNK” (Roche Palo Alto, LLC, priority 2007, dated 2012).
# Assays:
# Human JNK1α1 = Human JNK1α1 (Homo sapiens, UniProt P45983); test: JNK assay in vitro, phosphorylation of GST-ATF2 with [γ-33P] ATP (JNK1); type: biochemical; conditions: ATP at Km (6 μM), 1 μM ATF2, 30° C. 30 min; read-out: IC50 vs. JNK1
# Protocol: (§1) JNK activity was measured by phosphorylation of GST-ATF2 (19-96) with [γ-^33P] ATP. […] Human JNK2α2 assay contains 1 nM enzyme, 1 μM ATF2, 8 μM ATP with 1 uCi [γ-^33P] ATP. Human JNK1α1 assay contains 2 nM enzyme, 1 μM ATF2, 6 μM ATP with 1 μCi [γ-^33P] ATP. […] ATP. The enzyme assay was carried out in the presence or absence of several compound concentrations. JNK and compound were pre-incubated for 10 min., followed by initiation of the enzymatic reaction by adding ATP and the substrate. The reaction mixture was incubated at 30° C. for 30 min. […] The incorporation of ^33P into ATF2 was quantified on a microplate scintillation counter (Packard Topcount). Compound inhibition potency on JNK was measured by IC50 value generated from ten concentration inhibition curves fitted into the 3-parameter model: % inhibition=Maximum/(1+(IC50/[Inhibitor])^slope). Data were analyzed on Microsoft Excel for parameter estimation.
# Human JNK2α2 = Human JNK2α2 (Homo sapiens, UniProt P45984); test: JNK assay in vitro, phosphorylation of GST-ATF2 with [γ-33P] ATP (JNK2); type: biochemical; conditions: ATP at Km (8 μM), 1 μM ATF2, 30° C. 30 min
# Sequence of Human JNK2α2 (P45984 whole entry): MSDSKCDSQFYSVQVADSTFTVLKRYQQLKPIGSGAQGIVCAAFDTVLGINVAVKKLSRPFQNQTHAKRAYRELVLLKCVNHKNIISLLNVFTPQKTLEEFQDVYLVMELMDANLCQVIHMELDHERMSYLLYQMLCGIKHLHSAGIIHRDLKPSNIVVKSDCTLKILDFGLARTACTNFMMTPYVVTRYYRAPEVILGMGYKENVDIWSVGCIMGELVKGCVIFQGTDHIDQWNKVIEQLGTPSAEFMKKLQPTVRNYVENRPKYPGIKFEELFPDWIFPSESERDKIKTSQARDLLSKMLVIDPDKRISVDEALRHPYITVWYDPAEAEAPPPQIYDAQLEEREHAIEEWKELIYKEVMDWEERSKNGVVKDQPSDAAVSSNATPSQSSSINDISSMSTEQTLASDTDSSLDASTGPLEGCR
# Protocol: as §1
# Sequence of Human JNK1α1 (P45983 1-384 isoform P45983-2): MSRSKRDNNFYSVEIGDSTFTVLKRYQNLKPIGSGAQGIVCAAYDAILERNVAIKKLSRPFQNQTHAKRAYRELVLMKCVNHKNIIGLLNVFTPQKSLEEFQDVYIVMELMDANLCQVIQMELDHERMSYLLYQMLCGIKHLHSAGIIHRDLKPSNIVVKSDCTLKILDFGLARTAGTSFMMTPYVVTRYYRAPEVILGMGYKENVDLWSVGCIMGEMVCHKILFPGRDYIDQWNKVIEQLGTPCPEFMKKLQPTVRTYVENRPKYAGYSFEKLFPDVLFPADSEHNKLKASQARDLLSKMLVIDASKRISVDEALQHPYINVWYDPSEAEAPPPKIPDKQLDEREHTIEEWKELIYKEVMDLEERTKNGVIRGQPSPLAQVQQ
melting point [°C],IC50 (Human JNK1α1) [nM],IC50 (Human JNK2α2) [nM],Compound
168 to 169,–,–,C=CCn1c(C(=O)OC)c(Cc2ccc(S(C)(=O)=O)cc2)c(=O)c2ccc(C)nc21 [Compound 139]
193.6 to 194.9,–,–,COC(=O)c1c(Cc2ccc(S(=O)(=O)C(C)CO)cc2)c(=O)c2ccc(F)cc2n1-c1ccccc1 (centres unmarked) [Compound 118]
205 to 207,–,–,COC(=O)c1c(CN2CCN(S(C)(=O)=O)CC2)c(=O)c2ccc(F)cc2n1-c1ccccc1 [Compound 131]
–,252,562,"COC(=O)c1c(Cc2cnn(C)c2)c(=O)c2ccc(C(F)(F)F)nc2n1-c1ccccc1 [Compound 129, 3-(1-methyl-1H-pyrazol-4-ylmethyl)-1-4-oxo-phenyl-7-trifluoromethyl-1H-[1,8]naphthyridine-2-carboxylic acid methyl ester]"
136 to 137,–,–,CCOC(=O)C1CCN(Cc2c(C(=O)OC)n(-c3ccccc3)c3cc(F)ccc3c2=O)CC1 [Compound 133]
169 to 170,–,–,COC(=O)c1c(CN2CCOCC2)c(=O)c2ccc(F)cc2n1-c1ccccc1 [Compound 123]
190 to 191,–,–,"COC(=O)c1c(CN2CCC(S(C)(=O)=O)CC2)c(=O)c2ccc(F)cc2n1-c1ccccc1 [Compound 126, 7-fluoro-3-(4-methanesulfonyl-piperidin-1-ylmethyl)-4-oxo-1-phenyl-1,4-dihydro-quinoline-2-carboxylic acid methyl ester]"
168 to 169,–,–,"COCCOC(=O)c1c(Cc2ccccc2)c(=O)c2ccc(F)cc2n1-c1ccccc1 [Compound 130, 3-Benzyl-7-fluoro-4-oxo-1-phenyl-1,4-dihydro-quinoline-2-carboxylic acid 2-methoxy-ethyl ester]"
179 to 180,–,–,CCOC(=O)c1c(Cc2ccccc2)c(=O)c2ccc(Cl)cc2n1-c1ccccc1 [Compound 121]
195.9 to 197.2,–,–,COC(=O)c1c(Cc2ccc(S(=O)(=O)C(C)CO)cc2)c(=O)c2ccc(C)nc2n1-c1ccccc1 (centres unmarked) [Compound 119]
219 to 220,–,–,"O=c1c(Cc2ccccc2)c(-c2ncco2)n(-c2ccccc2)c2cc(Cl)ccc12 [Compound 140, 3-benzyl-7-chloro-2-oxazol-2-yl-1-phenyl-1H-quinolin-4-one]"
170 to 173,–,–,COC(=O)c1c(Cc2ccc(C(=O)NCCO)cc2)c(=O)c2ccc(C(F)(F)F)nc2n1-c1ccccc1 [Compound 116]
119 to 120,–,–,COC(=O)c1c(CN2CCS(=O)(=O)CC2)c(=O)c2ccc(F)cc2n1-c1ccccc1 [Compound 132]
206 to 207,–,–,COC(=O)c1c(Cc2cnc(OC)nc2)c(=O)c2ccc(F)cc2n1-c1ccccc1 [Compound 125]
218 to 219,–,–,COC(=O)c1c(Cc2ccc(C#N)cc2)c(=O)c2ccc(F)cc2n1-c1ccccc1 [Compound 124]
107 to 110,–,–,COC(=O)c1c(CN2CCn3c(nnc3C(F)(F)F)C2)c(=O)c2ccc(F)cc2n1-c1ccccc1 [Compound 134]
200 to 201,–,–,COC(=O)c1c(Cc2ccccc2)c(=O)c2ccc(Cl)cc2n1-c1ccccc1 [Compound 120]
159 to 160,–,–,COC(=O)c1c(CN2CCC(C#N)CC2)c(=O)c2ccc(F)cc2n1-c1ccccc1 [Compound 136]

# The next lines start with the compound.
Compound,melting point [°C],IC50 (Human JNK1α1) [nM],IC50 (Human JNK2α2) [nM]
"COC(=O)c1c(Cc2ccc(S(=O)(=O)N3CCN(C(=O)OC(C)(C)C)CC3)cc2)c(=O)c2ccc(Cl)cc2n1-c1ccccc1 [Compound 63, 3-[4-(4-tert-Butoxycarbonyl-piperazine-1-sulfonyl)-benzyl]-7-chloro-4-oxo-1-phenyl-1,4-dihydroquinoline-2-carboxylic acid methyl ester]",–,98.7,212
"CCNC(=O)c1ccc(Cc2c(C(=O)OC)n(-c3ccccc3)c3nc(C)ccc3c2=O)cn1 [Compound 101, 3-(6-Ethylcarbamoyl-pyridin-3-ylmethyl)-7-methyl-4-oxo-1-phenyl-1,4-dihydro[1,8]naphthyridine-2-carboxylic Acid Methyl Ester]",208 to 209,–,–
"COC(=O)c1c(Cc2ccc(S(=O)(=O)NCCO[Si](C)(C)C(C)(C)C)cc2)c(=O)c2ccc(Cl)cc2n1-c1ccccc1 [Compound 60, 3-{4-[2-(tert-Butyl-dimethyl-silanyloxy)-ethylsulfamoyl]-benzyl}-7-chloro-4-oxo-1-phenyl-1,4-dihydroquinoline-2-carboxylic acid methyl ester]",–,1630,4980
"CNS(=O)(=O)c1ccc(Cc2c(C(=O)OC)n(-c3ccccc3)c3cc(Cl)ccc3c2=O)cc1 [Compound 44, 7-Chloro-3-(4-methylsulfamoyl-benzyl)-4-oxo-1-phenyl-1,4-dihydroquinoline-2-carboxylic acid methyl ester]",–,49.1,–
"COC(=O)c1c(Cc2ccc(S(=O)(=O)N3CCOCC3)cc2)c(=O)c2ccc(Cl)cc2n1-c1ccccc1 [Compound 31, 7-Chloro-3-[4-(morpholine-4-sulfonyl)-benzyl]-4-oxo-1-phenyl-1,4-dihydroquinoline-2-carboxylic acid methyl ester]",–,52.9,161
"COC(=O)C(=O)NS(=O)(=O)c1ccc(Cc2c(C(=O)OC)n(-c3ccccc3)c3cc(Cl)ccc3c2=O)cc1 [Compound 64, 7-Chloro-3-[4-(methoxyoxalyl-sulfamoyl)-benzyl]-4-oxo-1-phenyl-1,4-dihydroquinoline-2-carboxylic acid methyl ester]",–,603,2060
COC(=O)c1c(Cc2ccc(S(C)(=O)=O)cc2)c(=O)c2ccc(C(F)(F)F)nc2n1-c1ccccc1 [Compound 115],193 to 195,–,–
"COC(=O)c1c(Cc2ccc(Cl)nc2)c(=O)c2ccc(C)nc2n1-c1ccccc1 [Compound 83, 3-(6-chloro-pyridin-3-ylmethyl)-7-methyl-4-oxo-1-phenyl-1,4-dihydro[1,8]naphthyridine-2-carboxylic acid methyl ester]",220 to 220.5,–,–
"COC(=O)c1c(Cc2ccc(C(=O)CBr)cc2)c(=O)c2ccc(C)nc2n1-c1ccccc1 [Compound 89, 3-[4-(2-bromoacetyl)-benzyl]-7-methyl-4-oxo-1-phenyl-1,4-dihydro-[1,8]naphthyridine-2-carboxylic acid methyl ester]",189 to 191.1,–,–
COC(=O)c1c(Cc2ccc(S(=O)(=O)N3CCN(C(=O)OC(C)(C)C)CC3(C)C)cc2)c(=O)c2ccc(F)cc2n1-c1ccccc1 [Compound 113],116 to 117,–,–
"COC(=O)c1ccc(Cc2c(C(=O)OC)n(-c3ccccc3)c3nc(C)ccc3c2=O)cn1 [Compound 100, 3-(6-Methoxycarbonyl-pyridin-3-ylmethyl)-7-methyl-4-oxo-1-phenyl-1,4-dihydro[1,8]naphthyridine-2-carboxylic Acid Methyl Ester]",177 to 178,–,226
COC(=O)c1c(Cc2ccc(S(=O)(=O)CCO)cc2)c(=O)c2ccc(F)cc2n1-c1ccccc1 [Compound 112],165 to 166,–,–
COC(=O)c1c(Cc2ccc(S(=O)(=O)N3CCNCC3)cc2)c(=O)c2ccc(F)cc2n1-c1ccccc1.Cl,214 to 215,–,–
COC(=O)c1c(Cc2ccc(SCCO)cc2)c(=O)c2ccc(F)cc2n1-c1ccccc1 [Compound 111],163 to 164,–,–
"COC(=O)c1c(Cc2ccc(S(=O)(=O)N(C)CCO)cc2)c(=O)c2ccc(Cl)cc2n1-c1ccccc1 [Compound 59, 7-Chloro-3-{4-[(2-hydroxyethyl)-methyl-sulfamoyl]-benzyl}-4-oxo-1-phenyl-1,4-dihydroquinoline-2-carboxylic acid methyl ester]",–,22.6,61.4
COC(=O)c1c(Cc2ccc(S(=O)(=O)N3CCN(C(=O)OC(C)(C)C)CC3)cc2)c(=O)c2ccc(F)cc2n1-c1ccccc1 [Compound 108],120 to 121,–,–
"COC(=O)c1c(Cc2ccc(OC)nc2)c(=O)c2ccc(C)nc2n1-c1ccccc1 [Compound 102, 3-(6-Methoxypyridin-3-ylmethyl)-7-methyl-4-oxo-1-phenyl-1,4-dihydro[1,8]naphthridine-2-carboxylic Acid Methyl Ester]",176 to 177,–,–
"COC(=O)c1c(Cc2ccc(S(C)(=O)=O)nc2)c(=O)c2ccc(C)nc2n1-c1ccccc1 [Compound 92, 3-(6-Methanesulfonyl-pyridin-3-ylmethyl)-7-methyl-4-oxo-1-phenyl-1,4-dihydro[1,8]naphthyridine-2-carboxylic Acid Methyl Ester]",217 to 218,–,–
"COC(=O)c1c(Cc2ccc(S(=O)(=O)NCC(O)CO)cc2)c(=O)c2ccc(Cl)cc2n1-c1ccccc1 (centres unmarked) [Compound 46, 7-chloro-3-[4-(2,3-dihydroxy-propylsulfamoyl)-benzyl]-4-oxo-1-phenyl-1,4-dihydroquinoline-2-carboxylic acid methyl ester]",–,45.4,137
"COC(=O)c1c(Cc2ccc(C(=O)N(C)C)nc2)c(=O)c2ccc(C)nc2n1-c1ccccc1 [Compound 103, 3-(6-Dimethylcarbamoyl-pyridin-3-ylmethyl)-7-methyl-4-oxo-1-phenyl-1,4-dihydro[1,8]naphthyridine-2-carboxylic Acid Methyl Ester]",235 to 236,–,–
COC(=O)c1c(Cc2ccc(S(=O)(=O)N3CCNCC3(C)C)cc2)c(=O)c2ccc(F)cc2n1-c1ccccc1.Cl,211 to 212,–,–
